In US20220000805A1, “COMBINATION OF M-OPIOID RECEPTOR (MOR) MODULATORS FOR PREVENTING AND TREATING PAIN, S[…] MENTAL DISORDERS” (HADAS IT MEDICAL RESEARCH SERVICES & DEVELOPMENT LIMITED, priority 2018, published 2022):
Values joined by “and” are separate entries in the source; they are usually repeats but may differ in a detail not shown here. Equal entries are not always repeated. Where two headings read alike, the source gives them in different places.

Key:
opioid-receptor = settings: opioid agonist; relative to 7-hydroxymitragynine; cited from earlier work
[1] = single iv bolus dose of 0.5 mg/kg racemic ketamine; for at least 24 hrs; cited from earlier work
h-OPRM1 (human MOR) = target: T1, h-OPRM1 (human MOR) (Homo sapiens, UniProt P35372); type: cell-based
T1 construct: host or cells: Chinese hamster ovary (CHO) cells, cAMP Hunter cell line
Method: Tracking cAMP Secondary Messenger Pathway in MOR Expressing Cells (DiscoverX)
A Chinese hamster ovary cell line stably expressing non-tagged h-OPRM1 (human MOR) that signal through cAMP was used.
1. cAMP Hunter cell line expressing h-OPRM1 was expanded from freezer stocks according to standard procedures. 2. Cells were seeded in a total volume of 20 μL into white walled, 384-well microplates and incubated at 37° C. for the appropriate time prior to testing. 3. cAMP modulation was determined using the DiscoverX HitHunter cAMP XS+ assay (for further details, see below).
1. For agonist determination, cells were incubated with sample in the presence of EC80 forskolin to induce cAMP-generation and Gi agonist activity, inhibiting cAMP formation, by the test compound was assayed, as follows: 2. Media was aspirated from cells and replaced with 15 μL 2:1 HBSS/10 mM Hepes: cAMP XS+Ab reagent. 3. Intermediate dilution of sample stocks was performed to generate 4× sample in assay buffer containing 4× EC80 forskolin. An amount of 4.5 μL of 4× sample was added to cells and incubated at 37° C. or room temperature for 30 or 60 minutes. The vehicle used for all stock solutions is DMSO and its final concentration in the assay system was 1%.
1. After appropriate compound incubation, assay signal was generated through incubation with 20 μL cAMP XS+ED/CL lysis cocktail for one hour followed by incubation with 20 μL cAMP XS+EA reagent for three hours at room temperature. 2. Microplates were read following signal generation with a PerkinElmer Envision™ instrument for chemiluminescent signal detection.
1. Compound activity was analyzed using CBIS data analysis suite (ChemInnovation, CA). 2. For Gi agonist mode assays, percentage activity is calculated using the following formula: % Activity=100%×(1−(mean RLU of test sample−mean RLU of MAX control)/(mean RLU of vehicle control−mean RLU of MAX control)).
OPRM1, the μ-opioid receptor (MOR), is a GPCR with high affinity for enkephalins and beta-endorphin, but a low affinity for dynorphins. The prototypical OPRM1 agonist is morphine, the primary psychoactive alkaloid in opium. It is an inhibitory G-protein coupled receptor that activates the Gi alpha subunit, inhibiting adenylate cyclase activity, thereby lowering cAMP levels. In order to test synergy of various drug combinations, towards the human receptor (h-OPRM1), a high sensitivity and absolute selectivity assay system, developed by DiscoverX (Fremont, Calif., USA) was employed. The analytical power of this assay, described in detail below, enables unequivocal identification of agonistic or antagonistic activity of drugs towards h-OPRM1, at the biologically relevant cellular context. […] A positive control dose-response was also examined in parallel (see FIG. 6).

T1 sequence (P35372 whole entry): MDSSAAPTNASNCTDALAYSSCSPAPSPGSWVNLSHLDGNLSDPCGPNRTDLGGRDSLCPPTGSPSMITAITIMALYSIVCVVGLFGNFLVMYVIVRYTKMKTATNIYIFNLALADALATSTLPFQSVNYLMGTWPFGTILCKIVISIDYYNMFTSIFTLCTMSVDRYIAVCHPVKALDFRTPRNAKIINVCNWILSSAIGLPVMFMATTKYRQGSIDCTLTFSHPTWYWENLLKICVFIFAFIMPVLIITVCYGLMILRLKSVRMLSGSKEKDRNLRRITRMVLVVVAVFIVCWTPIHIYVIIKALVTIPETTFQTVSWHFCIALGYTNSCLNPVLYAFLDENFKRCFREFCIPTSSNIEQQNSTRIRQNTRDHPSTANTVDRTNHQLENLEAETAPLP

Compound: 10-fluoro ethylene glycol adduct of 7-hydroxymitragynine
- potency higher than 7-hydroxymitragynine (opioid-receptor): 4 fold

Compound: CNC1(c2ccccc2Cl)CCCCC1=O (racemic) [Ketamine, (RS)-2-(2-Chlorophenyl)-2-(methylamino)cyclohexanone]
- HNK serum concentrations [1]: about 30 nM

Compound: N[C@@]1(c2ccccc2Cl)CCC[C@@H](O)C1=O.O=C(O)C(F)(F)F (racemic) [HNK, rac-(2r,6r)-2 amino-2-(2-chlorophenyl)-6-hydroxycyclohexan-1-one; trifluoroacetic acid, trans]
- agonistic activity of the ketamine active metabolite by itself (h-OPRM1 (human MOR)): no agonistic activity
- Agonistic activity (% of maximal c-AMP inhibition) (h-OPRM1 (human MOR); HNK 0.08 nM by itself, Table 2/5 series): 0% and 3.1%
- Agonistic activity (% of maximal c-AMP inhibition) (h-OPRM1 (human MOR); HNK 0.4 nM by itself, Table 2/5 series): 0% and 7.6%
- Agonistic activity (% of maximal c-AMP inhibition) (h-OPRM1 (human MOR); HNK 2 nM by itself, Table 2/5 series): 0%
- Agonistic activity (% of maximal c-AMP inhibition) (h-OPRM1 (human MOR); HNK 10 nM by itself, Table 2/5 series): 0%
- Agonistic activity (% of maximal c-AMP inhibition) (h-OPRM1 (human MOR); HNK 50 nM by itself, Table 1 series): 1.3%
- Agonistic activity (% of maximal c-AMP inhibition) (h-OPRM1 (human MOR); HNK 50 nM by itself, Table 2/5 series): 0% and 6.7%
- Agonistic activity (% of maximal c-AMP inhibition) (h-OPRM1 (human MOR); HNK 300 nM by itself, Table 1 series): 10.3%
- Agonistic activity (% of maximal c-AMP inhibition) (h-OPRM1 (human MOR); HNK 1,800 nM by itself, Table 1 series): −3.4%
- Agonistic activity (% of maximal c-AMP inhibition) (h-OPRM1 (human MOR); HNK 11,000 nM by itself, Table 1 series): −8.6%

Compound: CN1c2ccccc2C(NCCCCCCC(=O)O)c2ccc(Cl)cc2S1(=O)=O (stereo not shown) [Tia, 7-[(3-Chloro-6-methyl-5,5-dioxo-11H-benzo[c][2,1]benzothiazepin-11-yl)amino]heptanoic acid]
- amount of the single agent that obtains the level of activity of the combination (h-OPRM1 (human MOR)): > 5 ×
